For 18 molecules, MS Dog THalf, inhibition and MS Human THalf results are on record in US20150329558A1, “FUSED HETEROCYCLIC COMPOUNDS AS ION CHANNEL MODULATORS” (Gilead Sciences, Inc., priority 2011, published 2015).

Series [1] is described as follows: Microsomal stability assay, dog. The class given is in vitro ADME. The conditions noted are these: metabolic stability, dog liver microsomes 0.5 mg/mL, substrate 3 uM. In short, it runs like this: (§1)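 Liver microsomes at 0.5 mg/mL protein in 100 mM KPO4 buffer, incubated with 3 uM compound and NADPH-regenerating system, run in duplicate. Samples taken at 2, 12, 25, 45 and 65 min and quenched in MeOH/ACN/water before analysis.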
In general terms: Microsomes from liver hold many membrane-bound enzymes, among them those of drug oxidation.

Series [2] addresses T1, Human Nav1.2 (Homo sapiens, UniProt Q99250).
T1 construct: expressed in transfected cells
As to the kind of experiment: Nav1.2 use-dependent block, whole-cell voltage clamp. Type of series: cell-based. The conditions noted are these: use-dependent block 10 Hz, read-out: NAv1.2*-CHAN TEST-UDB-10 HZ-. The text has this:
Wild-type (WT) cDNA stably transfected in Chinese hamster ovary (CHO) cells is used to record INa. Unless otherwise noted, all reagents are purchased from Sigma-Aldrich (St Louis, Mo., U.S.A.).
Whole-cell voltage-clamp recordings are used to measure the biophysical properties of WT. Briefly, the pipette solution consists of (in mM) 110 CsF, 10 NaF, 20 CsCl, 2 EGTA, 10 HEPES, with a pH of 7.35 and osmolarity of 300 mOsmol/kg. The bath (control) solution contains in (mM): 145 NaCl, 4 KCl, 1.8 CaCl2, 1 MgCl2, 10 dextrose, 10 HEPES, with a pH of 7.35 and osmolarity of 310 mOsmol/kg. Cells are allowed to stabilize for 10 min after establishment of the whole-cell configuration before current is measured. Series resistance is compensated 90% to assure that the command potential is reached within microseconds with a voltage error <2 mV. Leak currents are subtracted by using an online P/4 procedure and all currents are low-pass Bessel filtered at 5 kHz and digitized at 50 kHz.
Tonic block of peak current is measured using a step to −10 mV (20 ms) from a holding potential of −120 mV (0.2 Hz). Use-dependent block of peak current is measured during pulse number 300 of a pulse train (−10 mV, 5 ms, 300 pulses, 10 Hz or 25 Hz) from a holding potential of −120 mV. Two sequential pulse train stimulations are averaged to obtain mean current traces for each recording condition, which are then used for offline subtraction and analysis.
For use-dependent studies, cells are stimulated with depolarizing pulse trains (−10 mV, 5 ms, 300 pulses, 10 and 25 Hz) from a holding potential of −120 mV. Currents are then normalized to the peak current recorded in response to the first pulse in each frequency train. For tonic block studies, peak current is evaluated in response to a 20 ms depolarization to −10 mV (0.2 Hz). Data analysis is performed using Clampfit 9.2 (Axon Instruments, Union City, Calif., U.S.A), Excel 2002 (Microsoft, Seattle, Wash., U.S.A.), and OriginPro 7.0 (OriginLab, Northampton, Mass., U.S.A) software. Results are presented as mean±SEM.
A stock solution of 10 mM compound of Formula I is prepared in 0.1 M HCl or DMSO. A fresh dilution of the compound of Formula I in the bath solution is prepared every experimental day and the pH is readjusted to 7.35 as necessary. The final DMSO concentration was kept at 0.1% in all solutions. Direct application of the perfusion solution to the clamped cell is achieved using the Perfusion Pencil system (Automate, Berkeley, Calif.). Direct cell perfusion is driven by gravity at a flow rate of 350 μL/min using a 250 micron tip. This system sequesters the clamped cell within a perfusion stream and enables complete solution exchange within 1 second. The clamped cell is perfused continuously starting immediately after establishing the whole-cell configuration. Control currents are measured during control solution perfusion.
Solutions are perfused for three minutes prior to current recordings to allow equilibrium (tonic) drug block. Tonic block of peak currents is measured from this steady-state condition. Three sequential current traces are averaged to obtain a mean current for each recording. The mean current traces are utilized for offline analysis. Use-dependent block of peak current is measured during pulse number 300 of the pulse train, (−10 mV, 5 ms, 300 pulses, 10 Hz) from a holding potential of −120 mV. Two sequential pulse train stimulations are averaged to obtain mean current traces for each recording condition, which are then used for offline subtraction and analysis. Where appropriate, concentration inhibition curves are fit with the Hill equation: I/Imax=1/[1+10̂(log IC50−I)*k], where IC50 is the concentration that produces half inhibition and k is the Hill slope factor.

A short description of series [3]: Microsomal stability assay, human. The note with it: metabolic stability, human liver microsomes 0.5 mg/mL, substrate 3 uM. The class given is in vitro ADME. In short, it runs like this:
as §1

In series [4] the target is T2, hNav1.1 (Homo sapiens, UniProt P35498).
T2 construct: expressed in transfected cells; host or cells: HEK293, transient transfection (α1:β1:β2 = 10:1:1)
As to the kind of experiment: Nav1.1 use-dependent block, whole-cell voltage clamp. The class given is cell-based. The note with it: use-dependent block 10 Hz, read-out: NAv1.1*-CHAN TEST-UDB-10 HZ-.

T1 sequence (Q99250 whole entry): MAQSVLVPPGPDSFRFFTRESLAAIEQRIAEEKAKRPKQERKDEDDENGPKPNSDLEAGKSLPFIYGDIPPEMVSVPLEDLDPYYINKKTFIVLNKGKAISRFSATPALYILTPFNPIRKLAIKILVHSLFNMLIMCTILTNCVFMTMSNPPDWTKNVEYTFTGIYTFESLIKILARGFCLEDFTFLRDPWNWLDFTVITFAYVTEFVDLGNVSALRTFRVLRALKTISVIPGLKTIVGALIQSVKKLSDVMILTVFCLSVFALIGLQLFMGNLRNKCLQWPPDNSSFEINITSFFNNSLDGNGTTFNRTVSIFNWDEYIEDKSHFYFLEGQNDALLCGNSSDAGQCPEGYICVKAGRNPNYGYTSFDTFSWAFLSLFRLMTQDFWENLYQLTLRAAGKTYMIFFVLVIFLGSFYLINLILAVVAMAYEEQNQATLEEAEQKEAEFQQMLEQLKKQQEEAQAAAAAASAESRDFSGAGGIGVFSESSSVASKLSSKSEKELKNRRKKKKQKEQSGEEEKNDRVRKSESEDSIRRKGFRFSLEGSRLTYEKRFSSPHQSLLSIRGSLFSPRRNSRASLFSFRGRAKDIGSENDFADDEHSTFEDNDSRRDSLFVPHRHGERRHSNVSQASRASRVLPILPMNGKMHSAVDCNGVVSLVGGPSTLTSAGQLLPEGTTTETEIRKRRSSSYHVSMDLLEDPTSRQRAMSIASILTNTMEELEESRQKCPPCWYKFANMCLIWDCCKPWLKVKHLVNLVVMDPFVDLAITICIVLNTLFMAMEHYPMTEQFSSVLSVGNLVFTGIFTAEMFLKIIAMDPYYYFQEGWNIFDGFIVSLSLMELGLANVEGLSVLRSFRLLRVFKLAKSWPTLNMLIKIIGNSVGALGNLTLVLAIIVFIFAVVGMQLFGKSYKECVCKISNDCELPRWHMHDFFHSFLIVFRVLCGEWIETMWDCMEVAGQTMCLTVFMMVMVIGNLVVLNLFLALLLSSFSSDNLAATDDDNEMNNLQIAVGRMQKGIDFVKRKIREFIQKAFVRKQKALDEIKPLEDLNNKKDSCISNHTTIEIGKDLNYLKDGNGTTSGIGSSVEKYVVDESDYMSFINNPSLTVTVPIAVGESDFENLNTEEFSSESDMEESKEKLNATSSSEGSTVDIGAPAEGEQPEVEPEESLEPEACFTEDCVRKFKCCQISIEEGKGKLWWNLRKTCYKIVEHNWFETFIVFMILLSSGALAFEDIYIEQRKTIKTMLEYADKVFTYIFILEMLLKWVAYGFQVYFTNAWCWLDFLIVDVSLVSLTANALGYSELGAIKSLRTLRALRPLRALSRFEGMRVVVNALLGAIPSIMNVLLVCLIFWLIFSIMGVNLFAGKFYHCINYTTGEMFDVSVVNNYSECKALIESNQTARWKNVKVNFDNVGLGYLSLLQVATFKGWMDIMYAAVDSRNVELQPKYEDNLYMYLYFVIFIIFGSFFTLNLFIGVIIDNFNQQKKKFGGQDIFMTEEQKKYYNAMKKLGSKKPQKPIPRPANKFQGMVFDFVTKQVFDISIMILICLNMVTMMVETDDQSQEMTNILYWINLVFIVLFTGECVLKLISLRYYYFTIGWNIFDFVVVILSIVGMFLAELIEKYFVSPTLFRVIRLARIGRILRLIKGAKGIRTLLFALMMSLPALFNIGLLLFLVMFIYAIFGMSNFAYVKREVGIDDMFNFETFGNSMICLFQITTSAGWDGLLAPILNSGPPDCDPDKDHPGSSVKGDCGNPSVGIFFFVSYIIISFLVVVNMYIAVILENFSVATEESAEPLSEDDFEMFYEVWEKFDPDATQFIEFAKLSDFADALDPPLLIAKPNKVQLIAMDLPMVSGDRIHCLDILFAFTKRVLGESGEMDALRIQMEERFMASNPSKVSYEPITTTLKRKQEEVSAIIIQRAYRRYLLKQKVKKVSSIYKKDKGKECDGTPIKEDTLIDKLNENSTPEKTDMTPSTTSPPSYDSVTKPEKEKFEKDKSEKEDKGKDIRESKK

In series [1], `Cc1noc(Cn2nnc3ccc(-c4ccc(OC(F)(F)F)cc4)cc3c2=O)n1` [II-3, 3-((3-methyl-1,2,4-oxadiazol-5-yl)methyl)-6-(4-(trifluoromethoxy)phenyl)benzo[d][1,2,3]triazin-4(3H)-one] returned an MS Dog THalf of 303 min. In addition, the inhibition at 1 µM in series [2] was -3.2%; in series [4] it was -6%. The molecule also came in with an MS Human THalf in series [3] of 336 min.

The molecule `O=c1c2cc(-c3ccc(OC(F)(F)F)cc3)ccc2nnn1Cc1noc(C2CC2)n1` [II-14, 3-((5-cyclopropyl-1,2,4-oxadiazol-3-yl)methyl)-6-(4-(trifluoromethoxy)phenyl)benzo[d][1,2,3]triazin-4(3H)-one] returned an MS Dog THalf in series [1] of 284 min. The inhibition at 1 µM in series [2] was -0.7%; in series [4], 19.5%. Moreover, the MS Human THalf in series [3] was 236 min.

In turn, `O=c1c2cc(-c3ccc(OC(F)(F)F)cc3)ccc2nnn1CCc1ccncn1` [II-17, 3-(2-(pyrimidin-4-yl)ethyl)-6-(4-(trifluoromethoxy)phenyl)benzo[d][1,2,3]triazin-4(3H)-one] displayed an MS Dog THalf in series [1] of 50 min. In addition, the MS Human THalf in series [3] was found to be 101 min.

`O=c1c2cc(-c3ccc(OC(F)(F)F)cc3)ccc2nnn1CCc1ncccn1` [II-18, 3-(2-(pyrimidin-2-yl)ethyl)-6-(4-(trifluoromethoxy)phenyl)benzo[d][1,2,3]triazin-4(3H)-one] registered an MS Dog THalf in series [1] of 74 min. Moreover, in series [3], the MS Human THalf stood at 130 min.

Regarding `O=c1c2cc(-c3ccc(OC(F)(F)F)cc3)ccc2nnn1CCOc1ncccn1` [II-32, 3-(2-(pyrimidin-2-yloxy)ethyl)-6-(4-(trifluoromethoxy)phenyl)benzo[d][1,2,3]triazin-4(3H)-one], in series [1], the MS Dog THalf amounted to 36 min. The inhibition at 1 µM in series [2] was 16.9%; in series [4], 21%. In series [3], this molecule showed an MS Human THalf of 392 min.

In series [1], `N#Cc1ccnc(OCCn2nnc3ccc(-c4ccc(OC(F)(F)F)cc4)cc3c2=O)n1` [II-36, 2-(2-(4-oxo-6-(4-(trifluoromethoxy)phenyl)benzo[d][1,2,3]triazin-3(4H)-yl)ethoxy)pyrimidine-4-carbonitrile] registered an MS Dog THalf of 124 min. In addition, the inhibition at 1 µM is 10.9% in series [2] and 7.9% in series [4]. In series [3], this molecule registered an MS Human THalf of 157 min.

On to `O=c1c2cc(-c3ccc(OC(F)(F)F)cc3)ccc2nnn1C1CCNCC1` [II-38, 3-(piperidin-4-yl)-6-(4-(trifluoromethoxy)phenyl)benzo[d][1,2,3]triazin-4(3H)-one], for which the MS Dog THalf in series [1] was found to be 68 min. For the same molecule, the inhibition at 1 µM in series [2] is 8%; in series [4] it was -1%. In series [3], this molecule had an MS Human THalf of more than 395 min.

In the case of `O=c1c2cc(-c3ccc(OC(F)(F)F)cc3)ccc2nnn1CC1(CN2CCOCC2)CC1` [II-40, 3-((1-(morpholinomethyl)cyclopropyl)methyl)-6-(4-(trifluoromethoxy)phenyl)benzo[d][1,2,3]triazin-4(3H)-one], the MS Dog THalf in series [1] came out at 2 min. Also, the MS Human THalf in series [3] amounted to 2 min.

Consider `O=c1c2cc(-c3ccc(OC(F)(F)F)cc3)ccc2nnn1Cc1noc(-c2ccccn2)n1` [II-54, 3-((5-(pyridin-2-yl)-1,2,4-oxadiazol-3-yl)methyl)-6-(4-(trifluoromethoxy)phenyl)benzo[d][1,2,3]triazin-4(3H)-one], for which the MS Dog THalf in series [1] stood at 28 min. The same molecule gave an MS Human THalf in series [3] of 329 min.

In series [1], `O=c1c2cc(-c3ccc(OC(F)(F)F)cc3)ccc2nnn1Cc1nnc(C2CC2)o1` [II-67, 3-((5-cyclopropyl-1,3,4-oxadiazol-2-yl)methyl)-6-(4-(trifluoromethoxy)phenyl)benzo[d][1,2,3]triazin-4(3H)-one] yielded an MS Dog THalf of 270 min. Also, in series [3], the MS Human THalf was more than 395 min.

Turning to `Cc1ncc(Cn2nnc3ccc(-c4ccc(OC(F)(F)F)cc4)cc3c2=O)o1` [II-95, 3-((2-methyloxazol-5-yl)methyl)-6-(4-(trifluoromethoxy)phenyl)benzo[d][1,2,3]triazin-4(3H)-one], the MS Dog THalf in series [1] came to 169 min. Also, the inhibition at 1 µM in series [2] was -8.2%; in series [4] it was -0.5%. This molecule also had an MS Human THalf in series [3] of 280 min.

Regarding `O=c1c2cc(-c3ccc(OC(F)(F)F)cc3)ccc2cnn1Cc1ncccn1` [III-5, 2-(pyrimidin-2-ylmethyl)-7-(4-(trifluoromethoxy)phenyl)phthalazin-1(2H)-one], the MS Dog THalf in series [1] worked out at 66 min. Moreover, the results for the inhibition at 1 µM in series [2] and in series [4] were 5.5% and 9.3%, respectively. Also, the MS Human THalf in series [3] turned out to be 30 min.

The molecule `O=c1c2cc(-c3ccc(OC(F)(F)F)cc3)ccc2cnn1CCn1cccn1` [III-9, 2-(2-(1H-pyrazol-1-yl)ethyl)-7-(4-(trifluoromethoxy)phenyl)phthalazin-1(2H)-one] had an MS Dog THalf in series [1] of 27 min. Also, the inhibition at 1 µM is 3.5% in series [2] and 7.1% in series [4]. The MS Human THalf in series [3] worked out at 100 min.

For `COc1cc(OC)nc(Cn2ncc3ccc(-c4ccc(OC(F)(F)F)cc4)cc3c2=O)n1` [III-19, 2-((4,6-dimethoxypyrimidin-2-yl)methyl)-7-(4-(trifluoromethoxy)phenyl)phthalazin-1 (2H)-one], the MS Dog THalf in series [1] was 129 min. Also, the inhibition at 1 µM in series [2] was -6%; in series [4], 19.3%. Moreover, the MS Human THalf in series [3] came to 130 min.

In series [1], `O=c1c2cc(-c3ccc(OC(F)(F)F)cc3)ccc2cnn1CCOc1ncccn1` [III-28, 2-(2-(pyrimidin-2-yloxy)ethyl)-7-(4-(trifluoromethoxy)phenyl)phthalazin-1 (2H)-one] gave an MS Dog THalf of 51 min. In addition, the inhibition at 1 µM was found to be 28.8% in series [2] and 40.5% in series [4]. Besides, the MS Human THalf in series [3] turned out to be 170 min.

Regarding `Cc1noc(Cn2cnc3ccc(-c4ccc(OC(F)(F)F)cc4)cc3c2=O)n1` [IV-6, 3-((3-methyl-1,2,4-oxadiazol-5-yl)methyl)-6-(4-(trifluoromethoxy)phenyl)quinazolin-4(3H)-one], the MS Dog THalf in series [1] was determined as 158 min. Moreover, the inhibition at 1 µM was 7.1% in series [2] and 3.1% in series [4]. Further, the MS Human THalf in series [3] amounted to 280 min.

In series [1], `Cc1nc(Cn2cnc3ccc(-c4ccc(OC(F)(F)F)cc4)cc3c2=O)no1` [IV-9, 3-((5-methyl-1,2,4-oxadiazol-3-yl)methyl)-6-(4-(trifluoromethoxy)phenyl)quinazolin-4(3H)-one] registered an MS Dog THalf of 356 min. Moreover, the results for the inhibition at 1 µM in series [2] and in series [4] were 8% and -6.5%, respectively. In series [3], this molecule came in with an MS Human THalf of more than 395 min.

On to `O=C1c2cc(-c3ccc(OC(F)(F)F)cc3)ccc2OCN1Cc1ncccn1` [VIII-20, 3-(pyrimidin-2-ylmethyl)-6-(4-(trifluoromethoxy)phenyl)-2H-benzo[e][1,3]oxazin-4(3H)-one], for which the inhibition at 1 µM in series [2] stood at 17.6%; in series [4] it was 11%.
